Measurements: paper PMC6583902 (Biochemistry, 2013)

System: C. elegans Sem-5 (sex muscle five) Src-homology 3 (SH3) domain
Conditions: stated in words

apparent binding constant measured by ITC: only in the millimolar range
Substance: Ac-VPPXVPPRRRY [proline]
